Measurements published in patent US20150344426A1, “COMPOUNDS AND THERAPEUTIC USES THEREOF” (ALZHEIMER'S INSTITUTE OF AMERICA, INC., priority 2012, published 2015).

What was measured:
[1] = Stability assessment / semi-quantitative hygroscopicity in a relative humidity (RH) chamber; format: physicochemical; details: solid in RH chamber; morphology and parent:prodrug composition
Description: “ND” in Table 2 refers to “No Data”. Purity was determined by HPLC. Melting point was determined by differential scanning calorimetry (“DSC”), and semi-quantitative hygroscopicity was determined in a relative humidity (“RH”) chamber.

[2] = Kinetic solubility (iSol Explorer method); format: physicochemical; details: system solution buffer (pION), aqueous buffer, kinetic from dmso stock
Description: Kinetic solubility was determined using the iSol Explorer method (pION Inc.; Woburn, Mass.). Certain Example Compounds were dissolved in dimethylsulfoxide (DMSO; >99.9% ACS spectrophotometric grade; Sigma-Aldrich, St. Louis, Mo.) to a concentration of 100 mM. The DMSO stock was diluted 1:100 in system solution buffer (pION Inc. Wobum Mass.) that had been adjusted to the desired pH (5.0, 6.8, and 7.4) with either HCl or NaOH. The diluted samples in the desired buffer were incubated for 15 minutes at room temperature and filtered using 96-well plate with 0.25 mm glass fiber/1.2 μm polyethersulfone filter bottoms (Corning, Inc.; Corning, N.Y.). The filtrate is transferred to a second 96-well plate and read on a SpectraMAX 190 (Molecular Devices; Sunnyvale, Calif.) scanning from 190 to 498 nm. The data are analyzed with Sol Explorer Command version 2.2, (pION Inc. Woburn, Mass.) and the concentration reported in molarity and/or mass per volume.

[3] = Stability in mouse liver microsomal preparations; format: in vitro ADME; details: liver microsomes, with and without 1 mM NADPH (not said which), read-out: Mouse Liver Microsomes t1/2
Description: (§1) Relative stability of Example Compound Nos. 1 through 60 in mouse plasma and mouse liver microsomal preparations.
(§2) Certain Example Compounds were each added to a final concentration of 1 μM to 1 mL of each of mouse plasma and mouse liver microsomal preparations (with and without 1 mM NADPH). Stability assays were run in duplicate and were sampled at 0, 5, 15, 30, 60 and 120 minutes as follows: one hundred microliter aliquots of samples were removed at the specified sampling times, and the reaction was quenched with 400 μL of acetonitrile.
(§3) Samples were analyzed by HPLC-ESI-MS/MS by measuring the peak area of both the starting Example Compound and parent compound (i.e., either Parent Compound A or Parent Compound B) that were created by removal of the Prodrug Moiety (as defined in Section 6 herein).

[4] = Stability in mouse plasma; format: in vitro ADME; details: read-out: Mouse Plasma t1/2
Description: as §1, §2, §3

[5] = system: HT1080 human fibrosarcoma cancer cells; test: Anti-tumor activity in HT1080 human fibrosarcoma xenograft with twice daily dosing; format: in vivo; details: for animals with no detectable tumors by the end of the study: cohort of ten
Description: One million HT1080 cells were implanted subcutaneously in the right flank of female nude mice (Crl:NU-Fox1^nu). When the median tumor volume (MTV) was approximately 209 mm^3, mice were randomized into four cohorts of ten animals. […] All cohorts were dosed twice daily for 7 days. The mice were observed daily for mortality and signs of toxicity. Tumor volumes and body weights were determined from Days 1 to 22. The results are depicted in FIG. 4.

[6] = pH 5.0, 15 minutes at room temperature
[7] = pH 6.8, 15 minutes at room temperature
[8] = pH 7.4, 15 minutes at room temperature
[9] = Example Compounds 44/45 study, 8 mg/kg twice daily for 7 days, Day 9
[10] = Example Compounds 44/45 study, 8 mg/kg twice daily for 7 days, end of the study, Day 22
[11] = Example Compounds 44/45 study, 12 mg/kg twice daily for 7 days, Day 9
[12] = Example Compounds 44/45 study, 12 mg/kg twice daily for 7 days, end of the study, Day 22

| solubility at 15 min [2, 6] | solubility at 15 min [2, 7] | solubility at 15 min [2, 8] | half-life at 1 µM [3] | half-life at 1 µM [4] | SMILES | Stability at 60° C. and 75% RH [1] | Stability at 40° C. and 75% RH [1] | also measured |
| --- | --- | --- | --- | --- | --- | --- | --- | --- |
| 601 µM | 547 µM | 524 µM |  |  | CC(C)(C)C(=O)OC[n+]1cccc(CNC(=O)Nc2ccc(OCCc3ccccc3-c3ccccc3)cc2)c1 [Example 36, 3-{[({4-[2-(Biphenyl-2-yl)ethoxy]phenyl}carbamoyl)amino]methyl}-1-{[(2,2-dimethylpropanoyl)oxy]methyl}pyridinium] | Oiled out at 1 hr No change in composition |  |  |
|  |  |  | 399 min | 53.5 min | CC(C)C(OC(=O)C(C)(C)C)[n+]1cccc(CNC(=O)Nc2ccc(OCCc3ccccc3-c3ccccc3)cc2)c1 (centres unmarked) [Example 40, 3-{[({4-[2-(Biphenyl-2-yl)ethoxy]phenyl}carbamoyl)amino]methyl}-1-{1-[(2,2-dimethylpropanoyl)oxy]-2-methylpropyl}pyridinium] | Approximately 5:95 parent to prodrug moiety observed at 14 days | No change in morphology at 14 days, only prodrug observed |  |
|  |  |  | < 5 min | < 5 min | CCCC(=O)OC[n+]1cccc(CNC(=O)Nc2ccc(OCCc3ccccc3-c3ccccc3)cc2)c1 [Example 41, 3-{[({4-[2-(Biphenyl-2-yl)ethoxy]phenyl}carbamoyl)amino]methyl}-1-[(butanoyloxy)methyl]pyridinium] | Deliquesced at 24 hr No change in composition | No change in morphology at 14 days, only prodrug observed |  |
| 397 µM | 393 µM | 399 µM | < 5 min |  | CC(=O)OC[n+]1cccc(CNC(=O)Nc2ccc(OCCc3ccccc3-c3ccccc3)cc2)c1 [Example 34, 1-[(Acetyloxy)methyl]-3-{[({4-[2-(biphenyl-2-yl)ethoxy]phenyl}carbamoyl)amino]methyl}pyridinium] |  |  |  |

| SMILES | solubility at 15 min [2, 6] | solubility at 15 min [2, 7] | solubility at 15 min [2, 8] | half-life at 1 µM [3] | half-life at 1 µM [4] | Stability at 60° C. and 75% RH [1] | Stability at 40° C. and 75% RH [1] | also measured |
| --- | --- | --- | --- | --- | --- | --- | --- | --- |
| CC(C)C(=O)OC[n+]1cccc(CNC(=O)Nc2ccc(OCCc3ccccc3-c3ccccc3)cc2)c1 [Example 44, 3-{[({4-[2-(Biphenyl-2-yl)ethoxy]phenyl}carbamoyl)amino]methyl}-1-{[(2-methylpropanoyl)oxy]methyl}pyridinium] |  |  |  | < 5 min | < 5 min | Deliquesced at 5 days approximately 50:50 parent to prodrug | No change in morphology at 14 days, circa 7:93 parent to prodrug | animals with no detectable tumors by the end of the study ([5]; Example Compounds 44/45 study, 8 mg/kg): One; animals with no detectable tumors by the end of the study ([5]; Example Compounds 44/45 study, 12 mg/kg): three; MTV decrease [5, 9]: 62%; tumor regression [5, 9]: 62%; MTV increase [5, 10]: 16%; tumor growth inhibition [5, 10]: 95%; MTV decrease [5, 11]: 67%; tumor regression [5, 11]: 67%; MTV decrease [5, 12]: 67%; tumor regression [5, 12]: 67%; anti-tumor activity in the HT1080 xenograft model (summary statement) ([5]; administered orally, twice daily, all doses tested): significant anti-tumor activity; Tolerability ([5]; xenograft mice, all doses tested, orally twice daily): well tolerated |
